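Growth conditions: 96-well plates. Treatment: test compound, 48 hours, 5 concentrations. Analysis: linear interpolation between bracketing concentrations; unreached endpoints set to highest concentration. GI50 marks 50% less growth.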 Activity calls are given as the source filed them. No stated cut-off is given here; in the data, active = GI50 up to about 1.1 µM and inactive = higher. Residues, ends and D or L forms follow the SMILES beside them. *: point of attachment. Boc = CC(C)(C)OC(=O)*
Tests used:
Assay in all cases: DTP human tumour cell line panel, 48 h
[1] = test system: A498
[2] = test system: SW-620
[3] = test system: SNB-75
[4] = test system: HCC 2998
[5] = test system: CCRF-CEM
[6] = test system: KM12
[7] = test system: HOP-92
[8] = test system: SN12C
[9] = test system: UACC-62
[10] = test system: NCI-H522
[11] = test system: SK-OV-3
[12] = test system: EKVX
[13] = test system: HL-60
[14] = test system: UO-31
[15] = test system: RPMI-8226
[16] = test system: NCI-H460
[17] = test system: HCT-116
[18] = test system: NCI-H23
[19] = test system: U-251
[20] = test system: NCI-H226

SMILES | GI50 [1] | GI50 [2] | GI50 [3] | GI50 [4] | GI50 [5] | GI50 [6] | GI50 [7] | GI50 [8] | GI50 [9] | GI50 [10] | GI50 [11] | GI50 [12] | GI50 [13] | GI50 [14] | GI50 [15] | GI50 [16] | GI50 [17] | GI50 [18] | GI50 [19] | GI50 [20]
O=C1c2cccc3cccc(c23)C(=O)N1O | > 100 µM (inactive) | 14.5 µM (inactive) | 27.7 µM (inactive) | 75 µM (inactive) | 18.5 µM (inactive) | 45.4 µM (inactive) | 25.7 µM (inactive) | 54.1 µM (inactive) | > 100 µM (inactive) | 37.2 µM (inactive) | 68.2 µM (inactive) | > 100 µM (inactive) | > 100 µM (inactive) | 70.1 µM (inactive) | 45.6 µM (inactive) | 29.2 µM (inactive) | 27.4 µM (inactive) | 74.8 µM (inactive) | 28.6 µM (inactive) | –
Nc1nc(Cl)cc(NCC2(CO)CC(c3ccccc3)C2)n1 (centres undefined) | 22.8 µM (inactive) | > 100 µM (inactive) | 18.1 µM (inactive) | – | 27 µM (inactive) | 39.5 µM (inactive) | 22.3 µM (inactive) | 13.8 µM (inactive) | 32.4 µM (inactive) | 37.9 µM (inactive) | 54.2 µM (inactive) | 5.41 µM (inactive) | 17.6 µM (inactive) | 16.6 µM (inactive) | 17.2 µM (inactive) | 43.4 µM (inactive) | 11.4 µM (inactive) | 3.57 µM (inactive) | 50.7 µM (inactive) | 37.7 µM (inactive)
CC(=O)c1cc2sc3ccccc3c2[nH]1 | > 100 µM (inactive) | > 100 µM (inactive) | – | > 100 µM (inactive) | – | > 100 µM (inactive) | > 100 µM (inactive) | > 100 µM (inactive) | 26.7 µM (inactive) | > 100 µM (inactive) | > 100 µM (inactive) | – | – | 56.4 µM (inactive) | 16.3 µM (inactive) | > 100 µM (inactive) | > 100 µM (inactive) | > 100 µM (inactive) | > 100 µM (inactive) | –
O=C1c2ccccc2C(=O)c2c1sc1nc3ccccc3n21 | 10.7 µM (inactive) | – | 13.1 µM (inactive) | 1.73 µM (inactive) | 1.94 µM (inactive) | 1.83 µM (inactive) | 10.4 µM (inactive) | 1.52 µM (inactive) | 1.87 µM (inactive) | – | 6.87 µM (inactive) | 2.4 µM (inactive) | 3.8 µM (inactive) | 2.01 µM (inactive) | 1.33 µM (inactive) | 1.79 µM (inactive) | 1.7 µM (inactive) | 1.29 µM (inactive) | 3.52 µM (inactive) | 5.68 µM (inactive)
CC(=O)C1C(=O)C(=O)N(c2ccc(Cl)cc2C)C1=O (centres undefined) | > 100 µM (inactive) | > 100 µM (inactive) | – | > 100 µM (inactive) | > 100 µM (inactive) | > 100 µM (inactive) | > 100 µM (inactive) | > 100 µM (inactive) | > 100 µM (inactive) | > 100 µM (inactive) | – | > 100 µM (inactive) | > 100 µM (inactive) | > 100 µM (inactive) | – | > 100 µM (inactive) | > 100 µM (inactive) | > 100 µM (inactive) | > 100 µM (inactive) | –
COc1ccc(/C=C2/SC(c3ccccc3)N(NC(=O)CCCCCCCCC(=O)NN3C(=O)/C(=C\c4ccc(OC)c(OC)c4)SC3c3ccccc3)C2=O)cc1OC (centres undefined) | 57.4 µM (inactive) | 54.8 µM (inactive) | 35.2 µM (inactive) | > 100 µM (inactive) | – | 45 µM (inactive) | 17.3 µM (inactive) | > 100 µM (inactive) | 29 µM (inactive) | – | 48.6 µM (inactive) | 17.1 µM (inactive) | – | 58.2 µM (inactive) | 20.7 µM (inactive) | 71 µM (inactive) | 29.1 µM (inactive) | 38.4 µM (inactive) | 57.3 µM (inactive) | > 100 µM (inactive)
CC(C)(C)OC(=O)NC(Cc1ccccc1)C(=O)N[C@H]1c2ccsc2/C(=N/O)[C@H]1O (some centres undefined) | > 100 µM (inactive) | > 100 µM (inactive) | – | > 100 µM (inactive) | > 100 µM (inactive) | – | > 100 µM (inactive) | > 100 µM (inactive) | > 100 µM (inactive) | – | > 100 µM (inactive) | > 100 µM (inactive) | 86.1 µM (inactive) | > 100 µM (inactive) | – | > 100 µM (inactive) | > 100 µM (inactive) | > 100 µM (inactive) | > 100 µM (inactive) | > 100 µM (inactive)
O=C1O/C(=C\c2ccc(O)cc2)C(c2ccc(O)c(Cl)c2)=C1Br | 16.4 µM (inactive) | 15.9 µM (inactive) | – | 11.3 µM (inactive) | 5.94 µM (inactive) | 12.4 µM (inactive) | 12.9 µM (inactive) | 15.6 µM (inactive) | 13.7 µM (inactive) | 6.76 µM (inactive) | 14 µM (inactive) | 14.1 µM (inactive) | 13.9 µM (inactive) | 14.6 µM (inactive) | 10.6 µM (inactive) | 12.8 µM (inactive) | 11.5 µM (inactive) | 16.1 µM (inactive) | 18 µM (inactive) | –
Cc1ccc(S(=O)(=O)N/N=C(/c2nc3ccc([N+](=O)[O-])cc3nc2O)C(O)c2ccc(C(O)/C(=N\NS(=O)(=O)c3ccc(C)cc3)c3nc4ccc([N+](=O)[O-])cc4nc3O)cc2)cc1 (centres undefined) | 59 µM (inactive) | 42.8 µM (inactive) | > 100 µM (inactive) | 28 µM (inactive) | 13.6 µM (inactive) | 19.3 µM (inactive) | 2.55 µM (inactive) | – | 68.4 µM (inactive) | 3.15 µM (inactive) | > 100 µM (inactive) | 81.7 µM (inactive) | 7.82 µM (inactive) | 38.4 µM (inactive) | 26.1 µM (inactive) | 35.6 µM (inactive) | 54.2 µM (inactive) | > 100 µM (inactive) | 67.6 µM (inactive) | –
Cc1ccc2nc(NC(=O)/C(Cc3nc4ccc(Cl)cc4nc3O)=N\NC(C)(C)C)sc2c1 | > 100 µM (inactive) | > 100 µM (inactive) | 15.5 µM (inactive) | > 100 µM (inactive) | > 100 µM (inactive) | > 100 µM (inactive) | > 100 µM (inactive) | > 100 µM (inactive) | > 100 µM (inactive) | – | > 100 µM (inactive) | – | > 100 µM (inactive) | 59.6 µM (inactive) | > 100 µM (inactive) | > 100 µM (inactive) | > 100 µM (inactive) | > 100 µM (inactive) | > 100 µM (inactive) | 9.59 µM (inactive)
N#CC(=S)Nc1ccc(F)cc1 | 32.7 µM (inactive) | 60.8 µM (inactive) | > 100 µM (inactive) | 45.4 µM (inactive) | 22.4 µM (inactive) | 70.3 µM (inactive) | 19.4 µM (inactive) | > 100 µM (inactive) | 40.2 µM (inactive) | – | > 100 µM (inactive) | 72.3 µM (inactive) | 30.4 µM (inactive) | – | 8.22 µM (inactive) | 55.3 µM (inactive) | 86.1 µM (inactive) | 53.7 µM (inactive) | 34.4 µM (inactive) | 78.5 µM (inactive)
COc1ccc(/C(Cl)=C(\C=O)c2ccc(OC)c(OC)c2)cc1 | 35.9 µM (inactive) | > 100 µM (inactive) | 21.7 µM (inactive) | – | 21.6 µM (inactive) | – | 20.8 µM (inactive) | 81.8 µM (inactive) | 16.6 µM (inactive) | 9.35 µM (inactive) | 62.4 µM (inactive) | 93.8 µM (inactive) | 8.85 µM (inactive) | 40.5 µM (inactive) | 16.5 µM (inactive) | 35.2 µM (inactive) | – | 21.5 µM (inactive) | 29.8 µM (inactive) | 34.1 µM (inactive)
CCCCCCCCCCCCOCCOCCOCCOCCOCCOCC(=O)NC(Cc1ccccc1)C(=O)Oc1ccc([N+](=O)[O-])cc1 (centres undefined) | 39.6 µM (inactive) | 36.2 µM (inactive) | 27 µM (inactive) | – | 31.7 µM (inactive) | 40.1 µM (inactive) | 26.7 µM (inactive) | – | 21.8 µM (inactive) | 29.9 µM (inactive) | 64.9 µM (inactive) | 61.2 µM (inactive) | 21.9 µM (inactive) | 26 µM (inactive) | 23.2 µM (inactive) | 30.5 µM (inactive) | 31.6 µM (inactive) | 32.3 µM (inactive) | 34.2 µM (inactive) | 59 µM (inactive)
S=C(N/N=C/c1ccccn1)N1CCCCCC1 | < 0.0391 µM (active) | < 0.01 µM (active) | 0.0783 µM (active) | 0.444 µM (active) | < 0.01 µM (active) | < 0.01 µM (active) | 0.0832 µM (active) | < 0.0192 µM (active) | < 0.0245 µM (active) | < 0.0267 µM (active) | < 0.01 µM (active) | < 0.0294 µM (active) | < 0.01 µM (active) | 0.0288 µM (active) | < 0.01 µM (active) | < 0.01 µM (active) | < 0.01 µM (active) | < 0.01 µM (active) | < 0.01 µM (active) | –
CC(NC(=O)C(NC(=O)OC(C)(C)C)C(C)C)C(=O)N1CCCC1C(=O)NCC(=O)NC(C(=O)NCC(=O)O)C(C)C (centres undefined) (Boc-VAPGVG-OH; configuration not given here) | > 100 µM (inactive) | > 100 µM (inactive) | 29.2 µM (inactive) | 77.3 µM (inactive) | > 100 µM (inactive) | – | 29.2 µM (inactive) | > 100 µM (inactive) | > 100 µM (inactive) | > 100 µM (inactive) | > 100 µM (inactive) | > 100 µM (inactive) | > 100 µM (inactive) | > 100 µM (inactive) | > 100 µM (inactive) | 65.5 µM (inactive) | > 100 µM (inactive) | > 100 µM (inactive) | > 100 µM (inactive) | –

Reference: ChEMBL document CHEMBL1201862, “PubChem BioAssay data set” (2004)
